PubChem BioAssay AID2060329 (Molecular Pharmacology Branch, DTP, NCI, 2025)
Values joined by “and” are separate entries in the source; they are usually repeats but may differ in a detail not shown here. Equal values may be shown once.

Test system: MCF7 multi-cell spheroids with HUVEC/MSC, viability
Experiment: Anticancer human tumor MCF7 cell line growth inhibition [IpAb];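 note: spheroids exposed to agents for seven days before readout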
Details: for viability, T/C: stronger effect = lower value; active = viability on the fitted dose curve at most 10% of control; inactive = the rest
Outline: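 Spheroids of 60% malignant cells, 25% HUVEC and 15% MSC were exposed to targeted agents combined with ipatasertib or abemaciclib. Doses started at or near clinical Cmax (10 microM when unknown) and fell in half-log steps.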

C=CCn1c(=O)c2cnc(Nc3ccc(N4CCN(C)CC4)cc3)nc2n1-c1cccc(C(C)(C)O)n1
inactive: viability, T/C (compound 0.0316 µM) 104% and 99.2% | viability, T/C (compound 0.1 µM) 98.9% and 108% | viability, T/C (compound 0.316 µM) 58.2% and 76.1% | viability, T/C (compound 1 µM) 34% and 44.2% | viability, T/C (compound 3.16 µM) 28.5% and 29.7% | viability, T/C (compound 10 µM) 28.2% and 33.6%
0.463 µM and 0.765 µM: IC50 (curve of compound)

Cc1nc(NC(=O)N2CCCC2C(N)=O)sc1-c1ccnc(C(C)(C)C(F)(F)F)c1 (configuration not stated) + CCN1CCN(Cc2ccc(Nc3ncc(F)c(-c4cc(F)c5nc(C)n(C(C)C)c5c4)n3)nc2)CC1
3.5 µM: IC50 (curve of first compound, second compound 0.316 µM)
2.43 µM: IC50 (curve of first compound, second compound 0.0316 µM)
3.36 µM: IC50 (curve of first compound, second compound 0.01 µM)
2.69 µM: IC50 (curve of first compound, second compound 0.1 µM)
2.73 µM: IC50 (curve of first compound, second compound 1 µM)
inactive: viability, T/C (second compound 0.01 µM, first compound 0.0316 µM) 104% | viability, T/C (second compound 0.01 µM, first compound 0.1 µM) 93.5% | viability, T/C (second compound 0.01 µM, first compound 0.316 µM) 94.8% | viability, T/C (second compound 0.01 µM, first compound 1 µM) 72.6% | viability, T/C (second compound 0.01 µM, first compound 3.16 µM) 52.2% | viability, T/C (second compound 0.01 µM, first compound 10 µM) 23.8% | viability, T/C (second compound 0.0316 µM, first compound 0.0316 µM) 112% | viability, T/C (second compound 0.0316 µM, first compound 0.1 µM) 108% | viability, T/C (second compound 0.0316 µM, first compound 0.316 µM) 91% | viability, T/C (second compound 0.0316 µM, first compound 1 µM) 63.4% | viability, T/C (second compound 0.0316 µM, first compound 3.16 µM) 48.7% | viability, T/C (second compound 0.0316 µM, first compound 10 µM) 14.2% | viability, T/C (second compound 0.1 µM, first compound 0.0316 µM) 106% | viability, T/C (second compound 0.1 µM, first compound 0.1 µM) 96.6% | viability, T/C (second compound 0.1 µM, first compound 0.316 µM) 76% | viability, T/C (second compound 0.1 µM, first compound 1 µM) 59.4% | viability, T/C (second compound 0.1 µM, first compound 3.16 µM) 56.5% | viability, T/C (second compound 0.1 µM, first compound 10 µM) 27.3% | viability, T/C (second compound 0.316 µM, first compound 0.0316 µM) 93% | viability, T/C (second compound 0.316 µM, first compound 0.1 µM) 105% | viability, T/C (second compound 0.316 µM, first compound 0.316 µM) 80.7% | viability, T/C (second compound 0.316 µM, first compound 1 µM) 61.4% | viability, T/C (second compound 0.316 µM, first compound 3.16 µM) 58.9% | viability, T/C (second compound 0.316 µM, first compound 10 µM) 34% | viability, T/C (second compound 1 µM, first compound 0.0316 µM) 92.3% | viability, T/C (second compound 1 µM, first compound 0.1 µM) 80.2% | viability, T/C (second compound 1 µM, first compound 0.316 µM) 65.6% | viability, T/C (second compound 1 µM, first compound 1 µM) 69.4% | viability, T/C (second compound 1 µM, first compound 3.16 µM) 48% | viability, T/C (second compound 1 µM, first compound 10 µM) 33.1%
